Test results taken from paper PMC4942611, “Promising Tools in Prostate Cancer Research: Selective Non-Steroidal Cytochrome P450 17A1 Inhibitors” (Scientific Reports, 2016).
Read-outs that look alike come from different tables or passages of the source.

Tests used:
CYP17A1 = molecular target: T1, CYP17A1 (Homo sapiens, UniProt P05093); test: H295R cell assay, CYP17A1 hydroxylase and lyase activity; assay type: cell-based; conditions: for IC50: 48 hours, mean over 6 to 15 measurements ± standard error
T1 construct: endogenous in cells; host or cells: H295R
T1 sequence (P05093 1-508): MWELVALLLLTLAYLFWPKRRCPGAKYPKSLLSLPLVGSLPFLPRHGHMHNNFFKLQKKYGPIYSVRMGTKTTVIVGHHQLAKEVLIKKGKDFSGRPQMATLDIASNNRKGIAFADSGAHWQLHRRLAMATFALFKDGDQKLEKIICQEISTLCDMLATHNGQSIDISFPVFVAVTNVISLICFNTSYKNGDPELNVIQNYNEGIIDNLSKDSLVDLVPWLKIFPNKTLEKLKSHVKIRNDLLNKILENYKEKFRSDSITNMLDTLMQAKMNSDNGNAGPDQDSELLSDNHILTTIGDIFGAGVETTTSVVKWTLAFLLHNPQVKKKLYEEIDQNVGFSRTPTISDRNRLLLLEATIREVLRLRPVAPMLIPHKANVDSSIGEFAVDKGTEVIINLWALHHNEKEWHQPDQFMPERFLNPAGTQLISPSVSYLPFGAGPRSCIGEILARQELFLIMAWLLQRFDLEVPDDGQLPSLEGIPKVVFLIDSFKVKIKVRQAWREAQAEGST
Procedure: (§1) The H295R steroid hormone synthesis assay was performed according to the OECD validation guideline. Cells were cultured in DMEM/F12 media supplemented with 1% ITS-premix and 2.5% Nu-serum at 37 °C with a 5% CO2 atmosphere. The cells were only used for experiments between passage […]. During exposure experiments, cells were grown in 24 well plates with a density of 3 × 10^5 cells/mL. […] To avoid interference from low levels of steroid hormones present in the Nu-serum, the exposure experiment was conducted with serum-free media. Each compound was tested at a minimum of seven concentration levels using three or more replicates and the experiment was repeated on two different days (n = 6–15). On each test plate a solvent control (SC) (medium with 0.1% DMSO) was included in triplicate and the maximal concentration of DMSO in the cell medium was 0.1%[49]. After 48 hours of incubation in presence of the test compounds, 950 μL of the medium was carefully removed and internal standards (50 μl of 0.1 μg/μl solution containing deuterated steroid analogues) were added. Samples were stored at −20 °C for later analysis.
(§2) Steroid extraction and clean-up were performed by double protein precipitation. First, 900 μL of cold acetonitrile were added to the samples, which were then vortexed and centrifuged at ~9500 × g for 10 minutes. Second, 900 μL cold methanol was added to the supernatant and the mixture was vortexed and centrifuged at 1500 × g for 10 minutes. Finally, the supernatant was collected and concentrated to ~1 mL under a gentle stream of nitrogen at 60 °C.
(§3) For on-line solid phase extraction (SPE) of steroids, a total of 100 μL was injected on a binary 1290 Agilent Infinity Series system and a binary 1100 Agilent HPLC pump were used in combination (Agilent Technologies, Palo Alto, CA, USA). For online clean-up, a C18 enrichment column (μbondapak® C18, 3.9 × 20 mm, 10 μm, Waters) was used. The enrichment column was connected to the autosampler through the TTC switching valve (two positions, 6 ports). Between the autosampler and the TTC switching valve a 0.3 μm in-line filter (1290 infinity in-line filter, Agilent) was installed. Separation of steroid hormones was performed using a C18 analytical column (Kinetex, 2.6 μm C18 100 Å, 75 × 2.1 mm, Phenomenex, USA). An isocratic flow of 1 mL/min H2O:methanol:formic acid at 90:10:0.1 (v/v/v) was generated by the 1100 pump which was connected to the autosampler. The 1290 pump performed a gradient elution with a flow rate of 0.3 mL which was connected to the TTC switching valve. Mobile phase A and B were composed of H2O with 0.1% formic acid (v/v) and pure methanol, respectively. The elution gradient was maintained at 10% B for the first 2 min, changed to 10.0–30.0% from 2.0 to 2.2 min, 30.0–60.0% from 2.2 to 8.0 min, maintained at 60.0% from 8.0 to 10.0 min, increased to 60.0–85.0% from 10.0 to 12.30 min, 85.0–99.5% from 12.3 to 12.5 min and held at 99.5% from 12.5 to 14.8 min, before re-equilibrating the column until 16 minutes.
(§4) For detection, an AB SCIEX 4500 QTRAP mass spectrometer (Applied Biosystems, Foster City, CA, USA) equipped with an atmospheric pressure chemical ionization (APCI) Turbo V source was used. Multiple reaction monitoring (MRM) was performed in positive mode during the analysis with a targeted scan time of 0.8 sec. Nitrogen was applied as curtain, collision, and ion source gases.

H295R cell line = test: H295R steroid hormone synthesis assay, production of steroidal hormones; assay type: cell-based, human; conditions: for IC50: Homo sapiens, NCI-H295R
Procedure: as §1, §2, §3, §4

[1] = based on conversion of 17-OH-PRE into DHEA, read-out: IC50 lyase, H295R system
[2] = based on conversion of PRE into 17-OH-PRE, read-out: IC50 hydroxylase, H295R system
[3] = H295R, progestagens, EC200 ± standard error
[4] = H295R, androgens, read-out: AN IC50
[5] = H295R, androgens, read-out: DHEA IC50
[6] = H295R, androgens, read-out: TS IC50
[7] = H295R, corticosteroids, read-out: 11deoxy-COR IC50
[8] = H295R, corticosteroids, read-out: 11deoxy-COS IC50
[9] = H295R, corticosteroids, read-out: COR IC50
[10] = H295R, corticosteroids, read-out: CORNE IC50
[11] = H295R, estrogens, read-out: E1 IC50
[12] = H295R, estrogens, read-out: E-E2 IC50
[13] = H295R, progestagens, mean over 6 to 15 measurements ± standard error, read-out: PREG IC50
[14] = H295R, progestagens, read-out: 17OH-PREG IC50
[15] = H295R, progestagens, read-out: 17OH-PROG IC50

SMILES	IC50 (CYP17A1; [1])	IC50 (CYP17A1; [2])	Effect on the CYP17A1 substrates pregnenolone and progesterone (H295R cell line; H295R cells)	PREG EC200 (H295R cell line; [3])	PROG EC200 (H295R cell line; [3])	IC50 (H295R cell line; [4])	IC50 (H295R cell line; [5])	IC50 (H295R cell line; [6])	IC50 (H295R cell line; [7])	IC50 (H295R cell line; [8])	IC50 (H295R cell line; [9])	IC50 (H295R cell line; [10])	IC50 (H295R cell line; [11])	IC50 (H295R cell line; [12])	IC50 (H295R cell line; [13])	IC50 (H295R cell line; [14])	IC50 (H295R cell line; [15])	further results
Cc1ccc(-c2csc(-c3cccnc3)n2)c(C)c1 [Compound 1]	94 ± 30 nM	830 ± 80 nM	dose-dependent increases	500 ± 70 nM	146 ± 7 nM	68 ± 2 nM	94 ± 30 nM	52 ± 2 nM	480 ± 10 nM	310 ± 60 nM	1200 ± 100 nM	700 ± 100 nM	220 ± 10 nM	235 ± 6 nM	390 ± 70 nM	830 ± 80 nM	800 ± 200 nM	11deoxy-COS EC200 (H295R cell line; H295R, EC200 ± standard error): 146 ± 4 nM; COS EC200 (H295R cell line; H295R, EC200 ± standard error): 56 ± 1 nM; IC50 (H295R cell line; H295R cells, read-out: IC50 values for progestagens and corticosteroids (range)): 300 to 1200 nM
CCCn1nnc2cc(-c3cc(-c4ccncc4)c(C#N)c(N)n3)ccc21 [Compound 2]	7.4 ± 0.1 nM	52 ± 4 nM	dose-dependent increases	19 ± 4 nM	32 ± 4 nM	4.3 ± 0.1 nM	7.4 ± 0.1 nM	3.3 ± 0.2 nM	54 ± 5 nM	23.8 ± 0.9 nM	36 ± 4 nM	23 ± 1 nM	19 ± 3 nM	50 ± 10 nM	15 ± 3 nM	52 ± 4 nM	20 ± 1 nM	IC50 (H295R cell line; H295R, corticosteroids, read-out: COS IC50): 36 ± 4 nM
C[C@]12CC[C@H](O)CC1=CC[C@@H]1[C@@H]2CC[C@]2(C)C(c3cccnc3)=CC[C@@H]12 [abiraterone, reference compound]		9.4 ± 0.3 nM		7.3 ± 0.3 nM	1.0 ± 0.1 nM	0.5 nM	1.8 ± 0.1 nM	0.2 nM	5.3 ± 0.1 nM		5 ± 0.4 nM	2.5 ± 0.1 nM	0.8 ± 0.1 nM	408 ± 60 nM	5.9 ± 0.5 nM	9.7 ± 0.3 nM	6.3 ± 0.2 nM	Inhibitor concentrations at which CYP17A1 is inhibited (only CYP17A1 affected) (CYP17A1; H295R cells): 2.5 to 10 nM; IC50 (H295R cell line; H295R, progestagens, mean over 6 to 15 measurements ± standard error, read-out: PROG IC50): 181 ± 5 nM; IC50 (H295R cell line; H295R, calculated on low concentrations of abiraterone (first part of the Gaussian-like curve), read-out: 11deoxy-COS IC50): 2.6 ± 0.5 nM; IC50 (H295R cell line; H295R, calculated on low concentrations of abiraterone (first part of the Gaussian-like curve), read-out: COS IC50): 2.9 ± 0.5 nM; IC50 (H295R cell line; H295R, calculated using high concentrations of abiraterone (second part of the Gaussian-like curve), read-out: 11deoxy-COS IC50): 240 ± 20 nM
